Results reported in PubChem BioAssay (NCI).
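Growth conditions: 96-well plates. Treatment: test compound, 48 hours, 5 concentrations. Analysis: linear interpolation between bracketing concentrations; unreached endpoints set to highest concentration. GI50 marks 50% less growth. TGI is the concentration that stops growth completely.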

Key:
Assay in all cases: NCI tumour cell line growth inhibition, 48 h
786-0 renal = test system: 786-0 renal
A498 renal = test system: A498 renal
A549 NSCLC = test system: A549 NSCLC
ACHN renal = test system: ACHN renal
BT-549 breast = test system: BT-549 breast
CAKI-1 renal = test system: CAKI-1 renal
CCRF-CEM leukemia = test system: CCRF-CEM leukemia
COLO 205 colon = test system: COLO 205 colon
DU-145 prostate = test system: DU-145 prostate
EKVX NSCLC = test system: EKVX NSCLC
HCC-2998 colon = test system: HCC-2998 colon
HCT-116 colon = test system: HCT-116 colon
HCT-15 colon = test system: HCT-15 colon
HL-60(TB) leukemia = test system: HL-60(TB) leukemia
HOP-62 NSCLC = test system: HOP-62 NSCLC
HOP-92 NSCLC = test system: HOP-92 NSCLC
HS 578T breast = test system: HS 578T breast
HT29 colon = test system: HT29 colon
IGROV1 ovarian = test system: IGROV1 ovarian
K-562 leukemia = test system: K-562 leukemia
KM12 colon = test system: KM12 colon
LOX IMVI melanoma = test system: LOX IMVI melanoma
M14 melanoma = test system: M14 melanoma
MALME-3M melanoma = test system: MALME-3M melanoma
MCF7 breast = test system: MCF7 breast
MDA-MB-231 breast = test system: MDA-MB-231 breast
MDA-MB-435 = test system: MDA-MB-435
MDA-MB-468 breast = test system: MDA-MB-468 breast
MOLT-4 leukemia = test system: MOLT-4 leukemia
NCI-H226 lung = test system: NCI-H226 lung
NCI-H23 lung = test system: NCI-H23 lung
NCI-H460 lung = test system: NCI-H460 lung
NCI-H522 lung = test system: NCI-H522 lung
NCI/ADR-RES ovarian = test system: NCI/ADR-RES ovarian
OVCAR-3 ovarian = test system: OVCAR-3 ovarian
OVCAR-4 ovarian = test system: OVCAR-4 ovarian
OVCAR-5 ovarian = test system: OVCAR-5 ovarian
OVCAR-8 ovarian = test system: OVCAR-8 ovarian
PC-3 prostate = test system: PC-3 prostate
RPMI-8226 leukemia = test system: RPMI-8226 leukemia
RXF 393 renal = test system: RXF 393 renal
SF-268 CNS = test system: SF-268 CNS
SF-295 CNS = test system: SF-295 CNS
SF-539 CNS = test system: SF-539 CNS
SK-MEL-2 melanoma = test system: SK-MEL-2 melanoma
SK-MEL-28 melanoma = test system: SK-MEL-28 melanoma
SK-MEL-5 melanoma = test system: SK-MEL-5 melanoma
SK-OV-3 ovarian = test system: SK-OV-3 ovarian
SN12C renal = test system: SN12C renal
SNB-19 CNS = test system: SNB-19 CNS
SNB-75 CNS = test system: SNB-75 CNS
SR leukemia = test system: SR leukemia
SW-620 colon = test system: SW-620 colon
T-47D breast = test system: T-47D breast
TK-10 renal = test system: TK-10 renal
U251 CNS = test system: U251 CNS
UACC-257 melanoma = test system: UACC-257 melanoma
UACC-62 melanoma = test system: UACC-62 melanoma
UO-31 renal = test system: UO-31 renal

In the case of `Oc1ccc(Cl)c(Nc2ncnc3c2cnn3CC(Cl)c2ccc(Br)cc2)c1` (stereo not drawn), the GI50 (786-0 renal) is reported as 5.7 µM, the TGI (786-0 renal) is reported as 23.3 µM and the GI50 (A498 renal) is reported as 16.2 µM. The TGI (A498 renal) was 30.7 µM, the GI50 (A549 NSCLC) was 12.1 µM and the TGI (A549 NSCLC) was 37.3 µM. For the same compound, the GI50 (ACHN renal) was 2.12 µM, the TGI (ACHN renal) was 15.3 µM and the GI50 (BT-549 breast) was 12.7 µM. The TGI (BT-549 breast) was 25.4 µM, the GI50 (CAKI-1 renal) was 3.72 µM and the TGI (CAKI-1 renal) was 28.6 µM. It also gave a GI50 (CCRF-CEM leukemia) of 13.6 µM, a TGI (CCRF-CEM leukemia) of 60.1 µM and a GI50 (COLO 205 colon) of 17.7 µM. The TGI (COLO 205 colon) was 38.7 µM, the GI50 (DU-145 prostate) was 10.6 µM and the TGI (DU-145 prostate) was 32 µM. It also gave a GI50 (EKVX NSCLC) of 11.9 µM, a TGI (EKVX NSCLC) of 34.6 µM and a GI50 (HCC-2998 colon) of 14.9 µM. The TGI (HCC-2998 colon) was 29.1 µM, the GI50 (HCT-116 colon) was 7.89 µM and the TGI (HCT-116 colon) was 21.4 µM. The GI50 (HCT-15 colon) was 4.57 µM, the TGI (HCT-15 colon) was 19.4 µM and the GI50 (HL-60(TB) leukemia) was 23.2 µM. It also gave a TGI (HL-60(TB) leukemia) of 62.2 µM, a GI50 (HOP-62 NSCLC) of 11.7 µM and a TGI (HOP-62 NSCLC) of 30.5 µM. For the same compound, the GI50 (HOP-92 NSCLC) was 2.34 µM, the TGI (HOP-92 NSCLC) was 12.4 µM and the GI50 (HS 578T breast) was 1.13 µM. The TGI (HS 578T breast) was 7.95 µM, the GI50 (HT29 colon) was 13.9 µM and the TGI (HT29 colon) was 31.9 µM. For the same compound, the GI50 (IGROV1 ovarian) was 2.39 µM, the TGI (IGROV1 ovarian) was 8.31 µM and the GI50 (K-562 leukemia) was 0.0826 µM. For the same compound, the TGI (K-562 leukemia) was 12.9 µM, the GI50 (KM12 colon) was 19.3 µM and the TGI (KM12 colon) was 42.9 µM. For the same compound, the GI50 (LOX IMVI melanoma) was 2.09 µM, the TGI (LOX IMVI melanoma) was 11.8 µM and the GI50 (M14 melanoma) was 11.2 µM. For the same compound, the TGI (M14 melanoma) was 24.3 µM, the GI50 (MALME-3M melanoma) was 12.3 µM and the TGI (MALME-3M melanoma) was 25.1 µM. The GI50 (MCF7 breast) was 11.1 µM, the TGI (MCF7 breast) was 26.2 µM and the GI50 (MDA-MB-231 breast) was 7.29 µM. For the same compound, the TGI (MDA-MB-231 breast) was 21 µM, the GI50 (MDA-MB-435) was 11.9 µM and the TGI (MDA-MB-435) was 26.8 µM. The GI50 (MDA-MB-468 breast) was 3.35 µM, the TGI (MDA-MB-468 breast) was 16.3 µM and the GI50 (MOLT-4 leukemia) was 6.75 µM. It also gave a TGI (MOLT-4 leukemia) of 37.7 µM, a GI50 (NCI-H226 lung) of 11.8 µM and a TGI (NCI-H226 lung) of 28.7 µM. For the same compound, the GI50 (NCI-H23 lung) was 12.6 µM, the TGI (NCI-H23 lung) was 26.3 µM and the GI50 (NCI-H460 lung) was 16.7 µM. The TGI (NCI-H460 lung) was 36.5 µM, the GI50 (NCI-H522 lung) was 7.4 µM and the TGI (NCI-H522 lung) was 27.8 µM. For the same compound, the GI50 (NCI/ADR-RES ovarian) was 7.47 µM, the TGI (NCI/ADR-RES ovarian) was 27.4 µM and the GI50 (OVCAR-3 ovarian) was 7.99 µM. It also gave a TGI (OVCAR-3 ovarian) of 38.8 µM, a GI50 (OVCAR-4 ovarian) of 13.1 µM and a TGI (OVCAR-4 ovarian) of 54.4 µM. The GI50 (OVCAR-5 ovarian) was 10.3 µM, the TGI (OVCAR-5 ovarian) was 24.4 µM and the GI50 (OVCAR-8 ovarian) was 7.97 µM. For the same compound, the TGI (OVCAR-8 ovarian) was 25.9 µM, the GI50 (PC-3 prostate) was 4.53 µM and the TGI (PC-3 prostate) was 35.4 µM. It also gave a GI50 (RPMI-8226 leukemia) of 17 µM, a TGI (RPMI-8226 leukemia) of 93.8 µM and a GI50 (RXF 393 renal) of 0.766 µM. It also gave a TGI (RXF 393 renal) of 7.17 µM, a GI50 (SF-268 CNS) of 6.07 µM and a TGI (SF-268 CNS) of 33.5 µM. The GI50 (SF-295 CNS) was 6.2 µM, the TGI (SF-295 CNS) was 27.3 µM and the GI50 (SF-539 CNS) was 4.64 µM. For the same compound, the TGI (SF-539 CNS) was 18.1 µM, the GI50 (SK-MEL-2 melanoma) was 17.5 µM and the TGI (SK-MEL-2 melanoma) was 34.3 µM. It also gave a GI50 (SK-MEL-28 melanoma) of 14.9 µM, a TGI (SK-MEL-28 melanoma) of 28.9 µM and a GI50 (SK-MEL-5 melanoma) of 10.5 µM. For the same compound, the TGI (SK-MEL-5 melanoma) was 22.3 µM, the GI50 (SK-OV-3 ovarian) was 7.63 µM and the TGI (SK-OV-3 ovarian) was 31.3 µM. The GI50 (SN12C renal) was 3.79 µM, the TGI (SN12C renal) was 18.1 µM and the GI50 (SNB-19 CNS) was 12.4 µM. For the same compound, the TGI (SNB-19 CNS) was 36 µM, the GI50 (SNB-75 CNS) was 1.03 µM and the TGI (SNB-75 CNS) was 5.58 µM. It also gave a GI50 (SR leukemia) of 6.67 µM, a TGI (SR leukemia) of 81.6 µM and a GI50 (SW-620 colon) of 21.9 µM. For the same compound, the TGI (SW-620 colon) was 47.4 µM, the GI50 (T-47D breast) was 4.48 µM and the TGI (T-47D breast) was 55.4 µM. For the same compound, the GI50 (TK-10 renal) was 13.9 µM, the TGI (TK-10 renal) was 29 µM and the GI50 (U251 CNS) was 11.3 µM. The TGI (U251 CNS) was 25.5 µM, the GI50 (UACC-257 melanoma) was 13.8 µM and the TGI (UACC-257 melanoma) was 28.3 µM. The GI50 (UACC-62 melanoma) was 12.6 µM, the TGI (UACC-62 melanoma) was 25.2 µM and the GI50 (UO-31 renal) was 2.34 µM. The TGI (UO-31 renal) was 17 µM.
